Source: the supplement of paper PMC11424490

How the values were obtained:
NCI-H2122 [1] = assay: relative IC50 of cell viability (CellTiter-Glo); higher = less potent
Procedure, shortened: (§1)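 In 384-well plates, NCI-H2122 cells were seeded at 800 cells/well and SW837 and NCI-H358 cells at 500 cells/well, all in 60 µl. Single compounds were added by acoustic dispensing in dose series 24 h later, with incubation for 72 h for NCI-H2122 and NCI-H358 and 144 h for SW837. CellTiter-Glo luminescence was read on an EnVision reader after 15 min shaking and expressed as percent of DMSO controls. A four-parameter nonlinear fit gave the relative IC50, averaged over replicates, and the lower plateau.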

NCI-H358 [2] = assay: as above
Procedure, shortened: as §1

SW837 [3] = assay: as above
Procedure, shortened: as §1

NCI-H2122 [4] = assay: fitted bottom plateau of viability curve, % of DMSO control; higher = less maximal inhibition; extreme values may be limits of the assay
Procedure, shortened: as §1

NCI-H358 [5] = assay: as above
Procedure, shortened: as §1

SW837 [6] = assay: as above
Procedure, shortened: as §1

| Structure (SMILES) | relative IC50 of cell viability (NCI-H2122 [1]) [nM] | relative IC50 of cell viability (NCI-H358 [2]) [nM] | relative IC50 of cell viability (SW837 [3]) [nM] | fitted bottom plateau of viability curve (NCI-H2122 [4]) [%] | fitted bottom plateau of viability curve (NCI-H358 [5]) [%] | fitted bottom plateau of viability curve (SW837 [6]) [%] |
| --- | --- | --- | --- | --- | --- | --- |
| Cc1nc(Nc2n[nH]c3c2CN(C(=O)N[C@H](CN(C)C)c2ccccc2)C3(C)C)c2sccc2n1 (top concentration tested 9999.9 nM) | 11.9 | 18.1 | 907 | 11.9 | 5.57 | 0 |
| CNS(=O)(=O)Nc1nccc(Cc2c(C)c3ccc(Oc4ncccn4)cc3oc2=O)c1F (top concentration tested 10000 nM) | 130 | 513 | 1570 | 1.94 | 2.19 | 18.8 |
| Cc1c(-c2c(-c3ccc(F)o3)sc3ncnc(O[C@H](Cc4ccccc4OCc4ccnn4CC(F)(F)F)C(=O)O)c23)ccc(OCCN2CCN(C)CC2)c1Cl (top concentration tested 10000 nM) | 3790 | 3590 |  | 34.5 | 0 | 101 |
| COc1ncc(-c2ccc3nccc(-c4ccnnc4)c3c2)cc1NS(=O)(=O)c1ccc(F)cc1F (top concentration tested 50000 nM) | 43.6 | 32.3 | 677 | 2.3 | 0.391 | 3.09 |
| C[C@@H]1CN(CC(=O)Nc2ccc3c(c2)Cc2cccc(-c4cc(=O)cc(N5CCOCC5)o4)c2S3)C[C@H](C)O1 (top concentration tested 50000 nM) | 11800 | 9010 | 39200 | 31 | 8.33 | 0 |
| Cc1cc(C)c(CNC(=O)c2cc(-c3ccc(N4CCNCC4)nc3)cc3c2c(C)cn3C2CCCC2)c(=O)[nH]1 (top concentration tested 50000 nM) | 17400 | 11500 | 10500 | 24.3 | 0.467 | 0.31 |
| CC1(C)CCC(c2ccc(Cl)cc2)=C(CN2CCN(c3ccc(C(=O)NS(=O)(=O)c4ccc(N[C@H](CCN5CCOCC5)CSc5ccccc5)c(S(=O)(=O)C(F)(F)F)c4)cc3)CC2)C1 [ABT-263] (top concentration tested 10000 nM) | 6240 | 6290 |  | 50 | 0 | 46 |
| C=CC(=O)N1CCN(c2nc(=O)n(-c3c(C)ccnc3C(C)C)c3nc(-c4c(O)cccc4F)c(F)cc23)[C@@H](C)C1 [AMG510 / Sotorasib] (top concentration tested 1000 nM) | 43 | 20.4 | 57.7 | 12 | 2.09 | 39.6 |
| COc1cc(CCc2cc(NC(=O)c3ccc(N4CC(C)NC(C)C4)cc3)n[nH]2)cc(OC)c1 (centres undefined) [AZD4547] (top concentration tested 10000 nM) | 4100 | 5730 |  | 68 | 0 | 86.8 |
| CCN1CCN(Cc2ccc(Nc3ncc(F)c(-c4cc(F)c5nc(C)n(C(C)C)c5c4)n3)nc2)CC1 [Abemaciclib] (top concentration tested 10000 nM) | 960 | 297 | 5140 | 35.8 | 0 | 0 |
| CN(C)C/C=C/C(=O)Nc1cc2c(Nc3ccc(F)c(Cl)c3)ncnc2cc1O[C@H]1CCOC1 [Afatinib] (top concentration tested 10000 nM) | 1220 | 176 | 5660 | 2.68 | 0 | 0 |
| Nc1cc(C(F)(F)F)c(-c2cc(N3CCOCC3)nc(N3CCOCC3)n2)cn1 [BKM120] (top concentration tested 10000 nM) | 921 | 1310 | 1790 | 3.49 | 7.46 | 20.6 |
| Cc1nc(NC(=O)N2CCC[C@H]2C(N)=O)sc1-c1ccnc(C(C)(C)C(F)(F)F)c1 [BYL-719] (top concentration tested 10000 nM) | 2530 | 2610 |  | 17.8 | 10.9 | 77.5 |
| COC(=O)[C@]12CCC(C)(C)C[C@H]1[C@H]1C(=O)C=C3[C@@]4(C)C=C(C#N)C(=O)C(C)(C)[C@@H]4CC[C@@]3(C)[C@]1(C)CC2 [Bardoxolone methyl] (top concentration tested 1000 nM) | 319 | 113 | 200 | 38.7 | 0.645 | 0 |
| O=C(/C=C/c1cccc(S(=O)(=O)Nc2ccccc2)c1)NO [Belinostat] (top concentration tested 10000 nM) | 274 | 491 | 1050 | 1.64 | 0.339 | 0.0148 |
| Cc1c(N)nc([C@H](CC(N)=O)NC[C@H](N)C(N)=O)nc1C(=O)N[C@H](C(=O)N[C@H](C)[C@@H](O)[C@H](C)C(=O)N[C@H](C(=O)NCCc1nc(-c2nc(C(=O)NCCC[S+](C)C)cs2)cs1)[C@@H](C)O)[C@@H](OC1OC(CO)C(O)C(O)C1OC1OC(CO)C(O)C(OC(N)=O)C1O)c1cnc[nH]1 (some centres undefined) [Bleomycin] (top concentration tested 10000 nM) | 1200 | 1380 | 438 | 45.4 | 12.7 | 4.05 |
| CC(C)C[C@H](NC(=O)[C@H](Cc1ccccc1)NC(=O)c1cnccn1)B(O)O [Bortezomib] (top concentration tested 999.9 nM) | 16.5 | 9.81 | 5.91 | 9.55 | 0.755 | 0.446 |
| COc1cc(Nc2c(C#N)cnc3cc(OCCCN4CCN(C)CC4)c(OC)cc23)c(Cl)cc1Cl [Bosutinib] (top concentration tested 10000 nM) | 3830 | 1510 | 4350 | 23.5 | 25.5 | 12.1 |
